Experimental data from patent US4875922A, “Pyrimidine derivatives” (Imperial Chemical Industries PLC, priority 1986, dated 1989).
Like-named read-outs stand apart in the source and are kept apart here.

Columns and labels:
Rice [1] = assay: Intermediate Retardant Test, rice; format: in vivo, Rice (Ishikari); conditions: Oryza sativa, 672 h, read-out: Percentage Reduction in Height of Rice (Compared to formulation blank)
Text: (§1) Three species are involved in this test RICE, SPRING-BARLEY and APPLES. The variety and growth stages at spray are outlined in Table V. Compounds were applied at 500 ppm and 2000 ppm respectively (0.5 kg and 2 kg/ha^-1 at a field volume of 1000 l/ha^-1) as an overall spray except in the case of certain tests on APPLES. This gives a foliar and root component in the test, i.e., this test will detect the activity of both root and foliar acting compounds. The intermediate retardant test on APPLES of which the results are given in Table IX was different, in that a foliar (only) spray at 2000 ppm was compared with a root drench, also at 2000 ppm. The rice was grown in 4" `paddy` pots, i.e., the roots and bottom of the stems are immersed in water under conditions corresponding to those in paddy fields. Spring barley and apples were grown in 4" pots. The plants were assessed for height to top-most ligule at approximately 28 days after treatment for spring barley and rice and for height to apex at approximately 28 days after the treatment for apples. In each case the result for the 500 ppm and 2000 ppm test for each compound is compared to the height of the formulation blank in that test, presented as a percentage reduction in height compared to the formulation blank.
(§2) The prior art compound was compared with compounds of the present invention in side-by-side comparisons using the Intermediate Retardant Test described in Example 62, and the results are given in Tables X to XII where `A` is the prior art compound, 2-methyl-1-isopropyl-1-(pyrimidin-5-yl)-propan-1-ol).

Spring Barley = assay: Intermediate Retardant Test, spring barley; format: in vivo, Spring Barley (Atem/kym); conditions: Hordeum vulgare, 672 h, read-out: Percentage Reduction in Height of Spring Barley (Compared to formulation blank)
Text: as §1, §2

Apples = assay: Intermediate Retardant Test, apples, foliar spray compared with root drench; format: in vivo, Apples (Red Delicious); conditions: 672 h, read-out: Percentage Reduction in Height of Apples (Compared to formulation blank); for percent reduction in plant height at 2000 µg/mL: soil, 2000 pmm (Root), root drench
Text: as §1, §2

Apple = assay: Whole plant screen for plant growth regulator activity, apple (AP); format: in vivo, Apple (Red Delicious); conditions: 4000 ppm (4 kg/ha), visual score after 2-6 weeks
Method: (§3) Compounds 1 to 3 in Table 1 were tested for plant growth regulator activity against five species for various growth effects relevant to plant growth regulation.
(§4) The plant species used in this screen are presented in Table II with the leaf stage at which they were sprayed. Each chemical was applied at 4000 ppm (4 kg/ha in a 1000 l/ha field volume) using a tracksprayer and a SS8004E (Teejet) nozzle.
(§5) After spray the plants were grown in a glasshouse with 25° C. day/22° C. night temperatures and supplementary lighting was supplied when necessary (from mercury vapour lamps), to provide a 16 hour photoperiod. The exception to this were the temperate cereals, wheat and barley which were grown in 16° C. day/13° C. night temperatures.
(§6) After 2-6 weeks in the glasshouse, depending on the time of year, the plants were visually assessed for morphological characteristics. Formulation blanks were used as controls to assess the plants.
(§7) Additional compounds in Table I were tested for plant growth regulator activity using the method of Example 60 except that Tomato was included in the test as an additional species. Tomato, Ailsa Craig, was grown in a single 3 inch pot in peat and treated at the 2 to 21/2 leaves growth stage. The results were presented in Table IV in which Tomato is indicated by the code TO and the Key is otherwise as for Table III.

Rice [2] = assay: Whole plant screen for plant growth regulator activity, rice (RC); format: in vivo, Rice (Ishikari); conditions: 4000 ppm (4 kg/ha), visual score after 2-6 weeks; for T = Tillering or side shooting: * = decrease in tillering
Method: as §3, §4, §5, §6, §7

Wheat = assay: Whole plant screen for plant growth regulator activity, wheat (WW); format: in vivo, Wheat (Timmo); conditions: WW, 4000 ppm (4 kg/ha), visual score after 2-6 weeks; for T = Tillering or side shooting: * = decrease in tillering
Method: as §3, §4, §5, §6, §7

Tomato = assay: Whole plant screen for plant growth regulator activity, tomato (TO); format: in vivo, Tomato (Ailsa Craig); conditions: 4000 ppm (4 kg/ha), visual score after 2-6 weeks
Method: as §4, §5, §6, §7
An astrisk (*) after a score under "T" (tillering) indicated a decrease in tillering.

Barley = assay: Whole plant screen for plant growth regulator activity, barley (BR); format: in vivo, Barley (Atem); conditions: BR, 4000 ppm (4 kg/ha), visual score after 2-6 weeks; for T = Tillering or side shooting: * = decrease in tillering
Method: as §3, §4, §5, §6, §7

[3] = side-by-side comparison with prior art compound, Table X
[4] = side-by-side comparison with prior art compound, Table XI
[5] = 2000 ppm (Foliar), side-by-side comparison with prior art compound, Table XII
[6] = 2000 ppm (Root), side-by-side comparison with prior art compound, Table XII
[7] = overall spray, approximately 28 days, Table VI
[8] = overall spray, approximately 28 days, Table VII
[9] = 2000 ppm (Foliar), approximately 28 days, Table IX
[10] = approximately 28 days, Table IX

Row | Structure (SMILES) | I = Interligular or internodal length reduction (Apple) | R = Retardation (Apple) | G = Greening effect (Rice [2]) | I = Interligular or internodal length reduction (Rice [2]) | R = Retardation (Rice [2]) | T = Tillering or side shooting (Rice [2]) | G = Greening effect (Wheat) | I = Interligular or internodal length reduction (Wheat) | R = Retardation (Wheat) | G = Greening effect (Tomato) | I = Interligular or internodal length reduction (Tomato) | R = Retardation (Tomato) | G = Greening effect (Barley) | I = Interligular or internodal length reduction (Barley) | R = Retardation (Barley) | T = Tillering or side shooting (Wheat) | T = Tillering or side shooting (Barley) | further results
1 | CC(C)C(O)(c1cncnc1)C(C)C [A, 2-methyl-1-isopropyl-1-(pyrimidin-5-yl)-propan-1-ol, reference compound] |  |  |  |  |  |  |  |  |  |  |  |  |  |  |  |  |  | Percent reduction in rice height vs formulation blank at 500 ppm (Rice [1]; [3]): 2%; Percent reduction in rice height vs formulation blank at 2000 ppm (Rice [1]; [3]): 0%; percent reduction in plant height at 500 ppm (Spring Barley; [4]): 0%; percent reduction in plant height at 2000 ppm (Spring Barley; [4]): 0%; percent reduction in plant height at 2000 ppm (Apples; [5]): 0%; percent reduction in plant height at 2000 ppm (Apples; [6]): 23.5%
2 | CCC(C)CC#CC(O)(c1cncnc1)C(C)C (stereo not drawn) [Compound 11, 2-Methyl-1-(4-methylhex-1-yne)-1-(pyrimidin-5-yl)propan-1-ol] |  |  |  |  |  |  |  |  |  |  |  |  |  |  |  |  |  | Percent reduction in rice height vs formulation blank at 500 ppm (Rice [1]; [7]): 4%; Percent reduction in rice height vs formulation blank at 2000 ppm (Rice [1]; [7]): 14%; percent reduction in plant height at 500 ppm (Spring Barley; [8]): 5%; percent reduction in plant height at 2000 ppm (Spring Barley; [8]): 47%; percent reduction in plant height at 2000 ppm (Apples; [9]): 6%; percent reduction in plant height at 2000 µg/mL (Apples; [10]): 55%
3 | CC(C)C(O)(CCC(C)(C)C)c1cncnc1 (stereo not drawn) [Compound 20] | 3 (61-100%) | 3 (61-100%) | 2 (31-60%) | 3 (61-100%) | 2 (31-60%) | 3 (61-100%) | 2 (31-60%) | 3 (61-100%) | 3 (61-100%) | 2 (31-60%) | 3 (61-100%) | 3 (61-100%) | 1 (10-30%) | 2 (31-60%) | 2 (31-60%) |  |  | G = Greening effect (Apple): 2 (31-60%)
4 | CC(C)CCC(O)(c1cncnc1)C(C)(C)C (stereo not drawn) [Compound 29] | 2 (31-60%) | 2 (31-60%) | 1 (10-30%) | 3 (61-100%) | 2 (31-60%) | 1 (10-30%) | 2 (31-60%) | 3 (61-100%) | 2 (31-60%) | 1 (10-30%) | 2 (31-60%) | 2 (31-60%) |  | 2 (31-60%) | 2 (31-60%) | 2 (31-60%) | 2 (31-60%) | G = Greening effect (Apple): 1 (10-30%)
5 | CCC(C)CCCC(O)(c1cncnc1)C(C)C (stereo not drawn) [Compound 21] | 2 (31-60%) | 2 (31-60%) | 1 (10-30%) | 2 (31-60%) | 2 (31-60%) | 2 (31-60%) | 2 (31-60%) | 2 (31-60%) | 2 (31-60%) | 2 (31-60%) | 2 (31-60%) | 2 (31-60%) | 1 (10-30%) | 3 (61-100%) | 2 (31-60%) |  | 3 (61-100%) | 
6 | CCCCCC(O)(c1cncnc1)C(C)(C)C (stereo not drawn) [Compound 15, 2,2-Dimethyl-1-(pentyl)-1-(pyrimidin-5-yl)-propan-1-ol] |  |  |  |  |  |  | 1 (10-30%) | 3 (61-100%) | 2 (31-60%) | 2 (31-60%) | 2 (31-60%) | 2 (31-60%) |  | 2 (31-60%) | 2 (31-60%) | 1 (10-30%) |  | Percent reduction in rice height vs formulation blank at 500 ppm (Rice [1]; [7]): 13%; Percent reduction in rice height vs formulation blank at 2000 ppm (Rice [1]; [7]): 39%; percent reduction in plant height at 500 ppm (Spring Barley; [8]): 14%; percent reduction in plant height at 2000 ppm (Spring Barley; [8]): 33%; percent reduction in plant height at 2000 ppm (Apples; [9]): 44.2%; percent reduction in plant height at 2000 µg/mL (Apples; [10]): 71.1%
7 | CC(C)CCCCC(O)(c1cncnc1)C(C)C (stereo not drawn) [Compound 22] | 1 (10-30%) | 1 (10-30%) |  |  |  |  | 2 (31-60%) | 2 (31-60%) | 2 (31-60%) | 2 (31-60%) | 2 (31-60%) | 2 (31-60%) |  | 1 (10-30%) | 1 (10-30%) | 1 (10-30%) |  | T = Tillering or side shooting (Tomato; * = decrease in tillering): 1 (10-30%)
8 | CCCCCCC(O)(c1cncnc1)C(C)(C)C (stereo not drawn) [Compound 30] | 2 (31-60%) | 2 (31-60%) | 2 (31-60%) | 3 (61-100%) | 2 (31-60%) | 3 (61-100%) | 2 (31-60%) | 3 (61-100%) | 3 (61-100%) | 2 (31-60%) | 2 (31-60%) | 2 (31-60%) | 1 (10-30%) | 3 (61-100%) | 2 (31-60%) | 3 (61-100%) | 2 (31-60%) | 
9 | CCCCCCC#CC(O)(c1cncnc1)C(C)(C)C (stereo not drawn) [Compound 33] |  |  |  |  |  |  | 1 (10-30%) | 1 (10-30%) |  | 1 (10-30%) | 1 (10-30%) | 2 (31-60%) |  |  |  |  | 2 (31-60%) | 
10 | CC(C)CC#CC(O)(c1cncnc1)C(C)C (stereo not drawn) [Compound 4, 2-methyl-1-(4-methylpent-1-yne)-1-(pyrimidin-5-yl)-propan-1-ol] |  |  |  |  |  |  |  |  |  |  |  |  |  |  |  |  |  | Percent reduction in rice height vs formulation blank at 500 ppm (Rice [1]; [3]): 45%; Percent reduction in rice height vs formulation blank at 2000 ppm (Rice [1]; [3]): 66%; percent reduction in plant height at 500 ppm (Spring Barley; [4]): 53%; percent reduction in plant height at 2000 ppm (Spring Barley; [4]): 64%; percent reduction in plant height at 2000 ppm (Apples; [5]): 46.8%; percent reduction in plant height at 2000 ppm (Apples; [6]): 64.6%
